SMILES strings stand for the structures.

This passage reports IC50 results from ChEMBL document CHEMBL4665871, “Small-molecule active pharmaceutical ingredients of approved cancer therapeutics inhibit human aspartate/asparagine-β-hydroxylase” (Bioorg Med Chem, 2020).

Test [1] deals with T1, Aspartyl/asparaginyl beta-hydroxylase (Homo sapiens, UniProt Q12797).
T1 sequence (Q12797 whole entry): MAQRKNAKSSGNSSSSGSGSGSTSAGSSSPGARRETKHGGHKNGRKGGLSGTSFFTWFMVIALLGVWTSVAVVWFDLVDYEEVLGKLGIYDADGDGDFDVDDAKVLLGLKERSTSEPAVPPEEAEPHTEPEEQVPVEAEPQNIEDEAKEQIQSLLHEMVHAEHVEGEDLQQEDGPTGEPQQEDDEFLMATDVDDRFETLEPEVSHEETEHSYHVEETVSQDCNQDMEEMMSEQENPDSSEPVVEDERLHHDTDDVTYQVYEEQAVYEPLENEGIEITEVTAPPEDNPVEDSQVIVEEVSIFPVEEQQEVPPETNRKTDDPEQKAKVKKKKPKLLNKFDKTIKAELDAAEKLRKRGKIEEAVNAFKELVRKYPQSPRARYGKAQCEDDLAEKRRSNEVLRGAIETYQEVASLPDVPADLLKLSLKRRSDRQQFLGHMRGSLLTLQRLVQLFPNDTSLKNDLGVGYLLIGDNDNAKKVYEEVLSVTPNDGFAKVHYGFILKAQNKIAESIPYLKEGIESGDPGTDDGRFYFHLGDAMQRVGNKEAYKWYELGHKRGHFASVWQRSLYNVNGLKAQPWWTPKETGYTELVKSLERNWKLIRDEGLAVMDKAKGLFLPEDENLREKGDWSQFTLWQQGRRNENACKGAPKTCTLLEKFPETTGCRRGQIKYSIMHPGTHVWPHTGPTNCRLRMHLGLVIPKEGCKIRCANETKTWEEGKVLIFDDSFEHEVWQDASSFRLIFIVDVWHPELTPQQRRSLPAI
Description: Inhibition of N-His6-tagged human AspH (315-755) expressed in Escherichia coli BL21 (DE3) using 1 uM hFX-CP as substrate mixture with 3 uM 2OG, 100 uM L-ascorbic acid and high 20 uM FAS incubated for 35 mins by MS analysis.

In test [2] the target is T1, Aspartyl/asparaginyl beta-hydroxylase. Description: Inhibition of N-His6-tagged human AspH (315-755) expressed in Escherichia coli BL21 (DE3) using 1 uM hFX-CP as substrate mixture with high 200 uM 2OG, 100 uM L-ascorbic acid and 2 uM FAS incubated for 35 mins by MS analysis.
For test [3] the target is unchanged. As to the kind of experiment: Inhibition of N-His6-tagged human AspH (315-755) expressed in Escherichia coli BL21 (DE3) using high 10 uM hFX-CP as substrate mixture with 10 uM 2OG, 100 uM L-ascorbic acid and 2 uM FAS incubated for 35 mins by MS analysis.

Turning to `CO[C@H](C(=O)[C@@H](O)[C@@H](C)O)[C@@H]1Cc2cc3cc(O[C@H]4C[C@@H](O[C@H]5C[C@@H](O)[C@H](O)[C@@H](C)O5)[C@H](O)[C@@H](C)O4)c(C)c(O)c3c(O)c2C(=O)[C@H]1O[C@H]1C[C@@H](O[C@H]2C[C@@H](O[C@H]3C[C@](C)(O)[C@H](O)[C@@H](C)O3)[C@@H](O)[C@@H](C)O2)[C@H](O)[C@@H](C)O1`, the figures for the IC50 result in test [1], in test [2] and in test [3] were “Not Active”, 12.2 µM and 3.39 µM, respectively.
